Results taken from ChEMBL document CHEMBL1126519, “Addition of amines to methyl 3-dehydroquinate and 3-dehydroshikimate” (Bioorg Med Chem Lett, 1993).

Test: pKA value in aqueous solution
Conditions: for pKa: aqueous solution

Compound	pKa	pKA (buffer)
NCc1ccccn1	8.62	
NCCc1ccccn1	9.52	
CN(C)c1ccc(N)cc1	6.71	
COC(=O)C(N)CCCCNC(=O)OC(C)(C)C (stereo not drawn)	8.9	
COC(=O)CN	7.73	
COC(=O)C(CCCCN)NC(=O)OC(C)(C)C (stereo not drawn)	10.8	
Nc1ccccn1 [2-AMINOPYRIDINE]		7.6
NCCc1ccccc1 [PHENETHYLAMINE]	9.08	
